According to ChEMBL document CHEMBL3124792, “Discovery and preclinical characterization of the cyclopropylindolobenzazepine BMS-791325, a potent allosteric inhibitor of the hepatitis C virus NS5B polymerase” (J Med Chem, 2014):
Converted amounts (≈) assume the structure as drawn.

How the values were obtained:
[1] = system: Hepatitis C virus; assay: Antiviral activity against Hepatitis C virus Con1 genotype 1b infected in human HuH7 cells after 3 days by FRET assay; assay type: functional, organism-based, Hepacivirus hominis; settings: isolate Con1, Huh-7, 72 h
[2] = system: Hepatitis C virus; assay: Antiviral activity against Hepatitis C virus Con1 genotype 1b infected in human HuH7 cells after 3 days by FRET assay in presence of 40% human serum; assay type: functional, organism-based, Hepacivirus hominis; settings: isolate Con1, Huh-7, 72 h
[3] = system: Hepatitis C virus; assay: Antiviral activity against Hepatitis C virus H77c genotype 1a infected in human HuH7 cells after 3 days by FRET assay; assay type: functional, organism-based, Hepacivirus hominis; settings: genotype 1a H77, Huh-7, 72 h
[4] = Cytotoxicity against human HuH7 cells by Alamar blue assay; assay type: cell-based; settings: Huh-7 cells
[5] = target: T1, Nuclear receptor subfamily 1 group I member 2 (Homo sapiens, UniProt O75469); assay: Transactivation of human PXR expressed in human HepG2 cells by luciferase reporter gene assay; assay type: cell-based
T1 sequence (O75469 whole entry): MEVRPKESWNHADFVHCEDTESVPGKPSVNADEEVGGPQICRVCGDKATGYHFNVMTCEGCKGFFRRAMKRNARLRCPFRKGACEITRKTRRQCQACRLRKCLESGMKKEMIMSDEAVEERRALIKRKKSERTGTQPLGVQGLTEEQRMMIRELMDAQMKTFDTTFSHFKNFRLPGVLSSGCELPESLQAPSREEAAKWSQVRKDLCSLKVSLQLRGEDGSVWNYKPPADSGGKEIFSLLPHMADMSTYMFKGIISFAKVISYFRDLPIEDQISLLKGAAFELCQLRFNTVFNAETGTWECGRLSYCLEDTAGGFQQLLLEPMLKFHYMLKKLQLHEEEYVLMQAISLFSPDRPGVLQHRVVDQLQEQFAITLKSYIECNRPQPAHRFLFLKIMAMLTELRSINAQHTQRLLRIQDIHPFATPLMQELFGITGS

[6] = Solubility of the compound in amorphous form in phosphate buffer at pH 6.5; assay type: physicochemical
[7] = system: Liver microsome; settings: rat, microsomes
[8] = system: Liver microsome; settings: human, microsomes
[9] = Permeability of the compound at pH 7.4 by PAMPA; assay type: physicochemical; settings: read-out: permeability
[10] = target: T2, PXR (NR1I2) (Homo sapiens, UniProt O75469); assay: Transactivation of human PXR expressed in human HepG2 cells by luciferase reporter gene assay relative to control; assay type: cell-based; settings: HepG2 cells expressing human PXR, read-out: %max
T2 sequence (O75469 whole entry): T1 sequence (O75469 whole entry)

[11] = target: RNA-directed RNA polymerase (Hepacivirus hominis, UniProt O39930, P495A); assay: Inhibition of HCV Con1 genotype 1b NS5B RNA dependent RNA polymerase P495A mutant-mediated incorporation of radiolabeled nucleotides by scintillation proximity assay; parameters: species or system Hepatitis C virus (isolate Con1)
[12] = Inhibition of HCV Con1 genotype 1b recombinant wild-type NS5B polymerase-mediated incorporation of radiolabeled nucleotides by scintillation proximity assay; parameters: species or system Hepatitis C virus (isolate Con1)

Sequence of RNA-directed RNA polymerase (O39930 entry or part of it P495A): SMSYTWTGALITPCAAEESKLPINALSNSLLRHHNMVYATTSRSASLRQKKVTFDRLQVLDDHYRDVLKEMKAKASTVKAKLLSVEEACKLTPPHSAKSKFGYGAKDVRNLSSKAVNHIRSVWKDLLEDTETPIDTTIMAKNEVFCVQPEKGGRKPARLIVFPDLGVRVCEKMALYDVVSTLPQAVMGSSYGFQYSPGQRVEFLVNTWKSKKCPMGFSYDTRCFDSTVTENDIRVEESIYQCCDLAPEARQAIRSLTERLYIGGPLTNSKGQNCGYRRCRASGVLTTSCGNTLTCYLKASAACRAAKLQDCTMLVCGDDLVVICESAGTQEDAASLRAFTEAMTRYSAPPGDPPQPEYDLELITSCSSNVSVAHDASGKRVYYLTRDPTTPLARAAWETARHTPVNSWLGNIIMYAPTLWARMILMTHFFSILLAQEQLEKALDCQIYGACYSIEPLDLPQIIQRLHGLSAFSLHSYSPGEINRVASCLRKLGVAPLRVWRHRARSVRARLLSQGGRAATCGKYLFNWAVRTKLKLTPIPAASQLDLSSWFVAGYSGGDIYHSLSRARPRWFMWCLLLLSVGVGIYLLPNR

| SMILES | EC50 [1] | EC50 [2] | EC50 [3] | CC50 [4] | EC20 ([5]; human, hepg2) | solubility [6] | Stability [7] | Stability [8] | Papp [9] | EC50 [5] | Emax [10] | EC50 [11] | IC50 [12] |
| --- | --- | --- | --- | --- | --- | --- | --- | --- | --- | --- | --- | --- | --- |
| COc1ccc2c(c1)C1CC1(C(=O)N1C[C@@H](C)O[C@@H](C)C1)Cn1c-2c(C2CCCCC2)c2ccc(C(=O)NS(=O)(=O)N(C)C)cc21 (mixture of isomers) | 24 nM | 98 nM | 12 nM | 9000 nM | 2800 nM | – | – | – | – | – | – | – | – |
| COc1ccc2c(c1)C1CC1(C(=O)N1C[C@@H](C)N[C@@H](C)C1)Cn1c-2c(C2CCCCC2)c2ccc(C(=O)NS(=O)(=O)N(C)C)cc21 (mixture of isomers) | 29 nM | 55 nM | 21 nM | 15000 nM | – | < 1 µg/mL | 100% | 91% | 14 ×10⁻⁶ cm/s | > 50000 nM | – | – | – |
| COc1ccc2c(c1)C1CC1(C(=O)N1CCN(C(C)=O)CC1)Cn1c-2c(C2CCCCC2)c2ccc(C(=O)NS(=O)(=O)N(C)C)cc21 (racemic) | 98 nM | 89 nM | 45 nM | > 10000 nM | – | 18 µg/mL (≈ 27.2 µM) | 100% | 93% | 34 ×10⁻⁶ cm/s | > 50000 nM | – | – | – |
| COc1ccc2c(c1)C1CC1(C(=O)N1CC3CCC(C1)O3)Cn1c-2c(C2CCCCC2)c2ccc(C(=O)NS(=O)(=O)N(C)C)cc21 (racemic) | 31 nM | 114 nM | 7 nM | > 10000 nM | – | – | – | – | – | 600 nM | 144% | – | – |
| COc1ccc2c(c1)C1CC1(C(=O)N1CCOCC1)Cn1c-2c(C2CCCCC2)c2ccc(C(=O)NS(=O)(=O)N(C)C)cc21 (racemic) | 61 nM | 300 nM | 54 nM | > 10000 nM | – | – | – | – | – | – | – | 385 nM | 22 nM |
| O=C(O)c1ccc2c(C3CCCCC3)c3n(c2c1)C[C@@]1(C(=O)N2CCOCC2)C[C@H]1c1ccccc1-3 | 51 nM | 484 nM | 41 nM | > 10000 nM | – | – | – | – | – | – | – | 380 nM | 22 nM |
| COc1ccc2c(c1)C1CC1(C(=O)N1C3CC1CN(C)C3)Cn1c-2c(C2CCCCC2)c2ccc(C(=O)NS(=O)(=O)N(C)C)cc21 (racemic) | 12 nM | 39 nM | 4 nM | 10000 nM | – | – | 100% | 100% | – | > 50000 nM | – | – | – |
| COc1ccc2c(c1)C1CC1(C(=O)N1CC(O)(C(F)(F)F)C1)Cn1c-2c(C2CCCCC2)c2ccc(C(=O)NS(=O)(=O)N(C)C)cc21 (racemic) | 50 nM | 115 nM | 15 nM | > 10000 nM | – | – | 100% | 100% | 47 ×10⁻⁶ cm/s | > 3000 nM | 32% | – | – |
| COc1ccc2c(c1)C1CC1(C(=O)N1CC3CCC(C1)N3)Cn1c-2c(C2CCCCC2)c2ccc(C(=O)NS(=O)(=O)N(C)C)cc21 (racemic) | 89 nM | – | 34 nM | > 10000 nM | – | – | 100% | 100% | 0.2 ×10⁻⁶ cm/s | > 50000 nM | – | – | – |
| CN(C)S(=O)(=O)NC(=O)c1ccc2c(C3CCCCC3)c3n(c2c1)CC1(C(=O)N2CCOCC2)CC1c1ccccc1-3 (racemic) | 82 nM | 821 nM | 44 nM | > 10000 nM | – | – | – | – | – | – | – | 165 nM | 94 nM |
| COc1ccc2c(c1)C1CC1(C(=O)N1CC(O)(c3ccc(F)cc3)C1)Cn1c-2c(C2CCCCC2)c2ccc(C(=O)NS(=O)(=O)N(C)C)cc21 (racemic) | 220 nM | – | 54 nM | 7000 nM | – | – | 100% | 87% | – | > 50000 nM | 3% | – | – |
| COc1ccc2c(c1)C1CC1(C(=O)N1CC3CCC(C1)N3C)Cn1c-2c(C2CCCCC2)c2ccc(C(=O)NS(=O)(=O)N(C)C)cc21 (racemic) | 39 nM | 153 nM | 16 nM | > 16000 nM | – | 41 µg/mL (≈ 62.1 µM) | 100% | 100% | 21 ×10⁻⁶ cm/s | 3000 nM | 29% | – | – |
| COc1ccc2c(c1)C1CC1(C(=O)N1C3CCC1CN(C)C3)Cn1c-2c(C2CCCCC2)c2ccc(C(=O)NS(=O)(=O)N(C)C)cc21 (racemic) | 13 nM | 45 nM | 5 nM | > 10000 nM | – | 44 µg/mL (≈ 66.7 µM) | 100% | 90% | 77 ×10⁻⁶ cm/s | – | 21% | – | – |
| COc1ccc2c(c1)C1CC1(C(=O)N1CC(O)(c3ccccc3)C1)Cn1c-2c(C2CCCCC2)c2ccc(C(=O)NS(=O)(=O)N(C)C)cc21 (racemic) | 160 nM | – | 68 nM | 8000 nM | – | – | 100% | 72% | 39 ×10⁻⁶ cm/s | > 50000 nM | 10% | – | – |
| COc1ccc2c(c1)C1CC1(C(=O)N1C3CCC1CNC3)Cn1c-2c(C2CCCCC2)c2ccc(C(=O)NS(=O)(=O)N(C)C)cc21 (racemic) | 32 nM | – | 14 nM | > 10000 nM | – | – | 100% | 96% | 4 ×10⁻⁶ cm/s | 9000 nM | 31% | – | – |
| O=C(O)c1ccc2c(C3CCCCC3)c3n(c2c1)CC(C(=O)N1CCOCC1)=Cc1ccccc1-3 | 359 nM | – | 404 nM | > 10000 nM | – | – | – | – | – | – | – | 3400 nM | 106 nM |
| COc1ccc2c(c1)C1CC1(C(=O)N1CC(O)(C(C)C)C1)Cn1c-2c(C2CCCCC2)c2ccc(C(=O)NS(=O)(=O)N(C)C)cc21 (racemic) | 23 nM | 65 nM | < 14 nM | 6500 nM | – | – | 100% | 72% | 74 ×10⁻⁶ cm/s | > 50000 nM | 14% | – | – |
| CCN1CC2CCC(C1)N2C(=O)C12CC1c1cc(OC)ccc1-c1c(C3CCCCC3)c3ccc(C(=O)NS(=O)(=O)N(C)C)cc3n1C2 (racemic) | 22 nM | 37 nM | 4 nM | > 10000 nM | – | – | 98% | 98% | 41 ×10⁻⁶ cm/s | > 50000 nM | – | – | – |
| COc1ccc2c(c1)C=C(C(=O)N1CCOCC1)Cn1c-2c(C2CCCCC2)c2ccc(C(=O)NS(=O)(=O)N(C)C)cc21 | 62 nM | – | 61 nM | > 10000 nM | – | – | – | – | – | – | – | 239 nM | 49 nM |
| CN(C)S(=O)(=O)NC(=O)c1ccc2c(C3CCCCC3)c3n(c2c1)C[C@]1(C(=O)N2CCOCC2)C[C@@H]1c1ccccc1-3 | 143 nM | – | 259 nM | > 10000 nM | – | – | – | – | – | – | – | 630 nM | 165 nM |
| O=C(O)c1ccc2c(C3CCCCC3)c3n(c2c1)C[C@]1(C(=O)N2CCOCC2)C[C@@H]1c1ccccc1-3 | 336 nM | – | 472 nM | > 10000 nM | – | – | – | – | – | – | – | 890 nM | 93 nM |
| CN(C)S(=O)(=O)NC(=O)c1ccc2c(C3CCCCC3)c3n(c2c1)C[C@@]1(C(=O)N2CCOCC2)C[C@H]1c1ccccc1-3 | 31 nM | 218 nM | 26 nM | > 10000 nM | – | – | – | – | – | – | – | 240 nM | 27 nM |
| COc1ccc2c(c1)C1CC1(C(=O)N1CC(O)(C3CC3)C1)Cn1c-2c(C2CCCCC2)c2ccc(C(=O)NS(=O)(=O)N(C)C)cc21 (racemic) | 29 nM | 68 nM | < 14 nM | > 10000 nM | – | – | 100% | 100% | 19 ×10⁻⁶ cm/s | > 50000 nM | 12% | – | – |
| CN(C)S(=O)(=O)NC(=O)c1ccc2c(C3CCCCC3)c3n(c2c1)CC(C(=O)N1CCOCC1)=Cc1ccccc1-3 | 148 nM | – | 119 nM | > 10000 nM | – | – | – | – | – | – | – | 1100 nM | 52 nM |
| COc1ccc2c(c1)C1CC1(C(=O)N1CCN(C(=O)N(C)C)CC1)Cn1c-2c(C2CCCCC2)c2ccc(C(=O)NS(=O)(=O)N(C)C)cc21 (racemic) | 54 nM | 59 nM | 23 nM | > 10000 nM | – | 18 µg/mL (≈ 26.1 µM) | 93% | 64% | 43 ×10⁻⁶ cm/s | > 50000 nM | – | – | – |
